Key:
Test in all cases: relative viability (nuclei count vs DMSO), 5 days (fraction); higher = more cells survive
[1] = tested on: HCC-44
Summary of the method: (§1)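 Nuclei were stained with Hoechst during a one-step fixation (final 0.05% Triton X-100, 1% formaldehyde, 1 ug/ml Hoechst) carried out 5 days after dosing, then counted on 4× images. The cells, lung cancer lines in 1536-well plates, had been dosed by pin tool the day after seeding with one drug alone or a fixed anchor-drug dose plus five library-drug doses (not always all listed) in √10 steps. Relative viability is the nuclei count in treated wells divided by that in vehicle wells, and each value is the median of duplicate plates.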

[2] = tested on: SW 1573
Summary of the method: as §1

[3] = tested on: LC-2-ad
Summary of the method: as §1

[4] = tested on: NCI-H2126
Summary of the method: as §1

[5] = tested on: NCI-H650
Summary of the method: as §1

[6] = tested on: PC-14
Summary of the method: as §1

[7] = tested on: UMC-11
Summary of the method: as §1

[8] = tested on: NCI-H1915
Summary of the method: as §1

[9] = tested on: NCI-H1355
Summary of the method: as §1

[10] = tested on: NCI-H1651
Summary of the method: as §1

[11] = tested on: EPLC-272H
Summary of the method: as §1

Cc1sc2c(c1C)C(c1ccc(Cl)cc1)=N[C@@H](CC(=O)OC(C)(C)C)c1nnc(C)n1-2 [JQ1] + Nc1ncn([C@H]2C[C@H](O)[C@@H](CO)O2)c(=O)n1 [Decitabine] (partner 2 µM)
relative viability ([1]; first compound 0.04 µM): 0.955 | relative viability ([1]; first compound 0.1265 µM): 0.63 | relative viability ([1]; first compound 0.4 µM): 0.834 | relative viability ([1]; first compound 1.265 µM): 0.903 | relative viability ([1]; first compound 4 µM): 0.516 | relative viability ([2]; first compound 0.04 µM): 0.366 | relative viability ([2]; first compound 0.1265 µM): 0.443 | relative viability ([2]; first compound 0.4 µM): 0.393 | relative viability ([2]; first compound 1.265 µM): 0.216 | relative viability ([2]; first compound 4 µM): 0.275 | relative viability ([3]; first compound 0.04 µM): 0.754 | relative viability ([3]; first compound 0.1265 µM): 0.621 | relative viability ([3]; first compound 0.4 µM): 0.708 | relative viability ([3]; first compound 1.265 µM): 0.574 | relative viability ([3]; first compound 4 µM): 0.3 | relative viability ([4]; first compound 0.04 µM): 0.591 | relative viability ([4]; first compound 0.1265 µM): 0.584 | relative viability ([4]; first compound 0.4 µM): 0.561 | relative viability ([4]; first compound 1.265 µM): 0.411 | relative viability ([4]; first compound 4 µM): 0.428 | relative viability ([5]; first compound 0.04 µM): 0.278 | relative viability ([5]; first compound 0.1265 µM): 0.305 | relative viability ([5]; first compound 0.4 µM): 0.316 | relative viability ([5]; first compound 1.265 µM): 0.251 | relative viability ([5]; first compound 4 µM): 0.249 | relative viability ([6]; first compound 0.04 µM): 0.188 | relative viability ([6]; first compound 0.1265 µM): 0.19 | relative viability ([6]; first compound 0.4 µM): 0.185 | relative viability ([6]; first compound 1.265 µM): 0.0999 | relative viability ([6]; first compound 4 µM): 0.117 | relative viability ([7]; first compound 0.04 µM): 0.514 | relative viability ([7]; first compound 0.1265 µM): 0.468 | relative viability ([7]; first compound 0.4 µM): 0.328 | relative viability ([7]; first compound 1.265 µM): 0.294 | relative viability ([7]; first compound 4 µM): 0.309 | relative viability ([8]; first compound 0.04 µM): 0.279 | relative viability ([8]; first compound 0.4 µM): 0.255 | relative viability ([8]; first compound 1.265 µM): 0.246 | relative viability ([8]; first compound 4 µM): 0.248 | relative viability ([9]; first compound 0.04 µM): 0.348 | relative viability ([9]; first compound 0.1265 µM): 0.342 | relative viability ([9]; first compound 0.4 µM): 0.337 | relative viability ([9]; first compound 1.265 µM): 0.319 | relative viability ([9]; first compound 4 µM): 0.249 | relative viability ([10]; first compound 0.04 µM): 0.651 | relative viability ([10]; first compound 0.1265 µM): 0.487 | relative viability ([10]; first compound 0.4 µM): 0.442 | relative viability ([10]; first compound 1.265 µM): 0.524 | relative viability ([10]; first compound 4 µM): 0.411 | relative viability ([11]; first compound 0.04 µM): 0.365 | relative viability ([11]; first compound 0.1265 µM): 0.352 | relative viability ([11]; first compound 0.4 µM): 0.323 | relative viability ([11]; first compound 1.265 µM): 0.246 | relative viability ([11]; first compound 4 µM): 0.253
